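Values below derive from 48-hour exposures of cells grown in 96-well plates, with endpoints linearly interpolated between the two concentrations bracketing the appropriate inhibition level. Abbreviation: GI50, concentration required for 50% inhibition of growth.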 The source made the active and inactive calls. No stated cut-off is given here; in the data, active = GI50 up to about 1.1 µM and inactive = higher.
Experiments:
Assay in all cases: NCI-60 cell line screen, 48 h
[1] = system: 786-0
[2] = system: A549
[3] = system: HCT-15
[4] = system: HT-29
[5] = system: K562
[6] = system: M14
[7] = system: NCI-H460
[8] = system: RPMI-8226
[9] = system: RXF 393
[10] = system: SF-295
[11] = system: SF-539
[12] = system: SK-MEL-5
[13] = system: SK-OV-3
[14] = system: SNB-78
[15] = system: SR
[16] = system: UACC-257
[17] = system: UO-31
[18] = system: MCF7
[19] = system: T47D
[20] = system: PC-3

N#C/C(=C\c1ccc[nH]1)C(=O)c1ccccc1
GI50 [1]: > 100 µM (inactive)
GI50 [2]: > 100 µM (inactive)
GI50 [3]: > 100 µM
GI50 [4]: > 100 µM (inactive)
GI50 [5]: > 100 µM (inactive)
GI50 [6]: > 100 µM (inactive)
GI50 [7]: > 100 µM (inactive)
GI50 [8]: > 100 µM (inactive)
GI50 [9]: 58.9 µM (inactive)
GI50 [10]: > 100 µM (inactive)
GI50 [11]: > 100 µM (inactive)
GI50 [12]: > 100 µM (inactive)
GI50 [13]: > 100 µM (inactive)
GI50 [14]: > 100 µM (inactive)
GI50 [15]: > 100 µM (inactive)
GI50 [16]: > 100 µM (inactive)
GI50 [17]: > 100 µM (inactive)

O=C(CC1C(=O)Nc2ccccc2[S+]1[O-])Nc1cccc(Cl)c1 (stereo not given)
GI50 [1]: 37.2 µM (inactive)
GI50 [2]: > 100 µM (inactive)
GI50 [3]: 27.1 µM
GI50 [4]: > 35.6 µM (inactive)
GI50 [5]: 6.61 µM (inactive)
GI50 [6]: > 42.4 µM (inactive)
GI50 [18]: 13.8 µM (inactive)
GI50 [7]: > 44.6 µM (inactive)
GI50 [8]: 7.98 µM (inactive)
GI50 [9]: 20.9 µM (inactive)
GI50 [10]: 41.9 µM (inactive)
GI50 [11]: 18.6 µM (inactive)
GI50 [12]: > 30.9 µM (inactive)
GI50 [13]: 31.3 µM (inactive)
GI50 [14]: 40.9 µM (inactive)
GI50 [15]: 4.93 µM (inactive)
GI50 [19]: 11.2 µM (inactive)
GI50 [16]: > 50.5 µM (inactive)
GI50 [17]: 25.1 µM (inactive)

Cc1cc(=O)oc2cc3c(cc12)Oc1ccccc1O3
GI50 [1]: > 100 µM (inactive)
GI50 [2]: > 100 µM (inactive)
GI50 [3]: > 100 µM
GI50 [4]: > 100 µM (inactive)
GI50 [5]: > 10 µM (inactive)
GI50 [6]: > 100 µM (inactive)
GI50 [7]: 51.9 µM (inactive)
GI50 [8]: > 100 µM (inactive)
GI50 [9]: > 100 µM (inactive)
GI50 [10]: 43.5 µM (inactive)
GI50 [11]: 18.1 µM (inactive)
GI50 [12]: > 100 µM (inactive)
GI50 [13]: 99.8 µM (inactive)
GI50 [14]: 53 µM (inactive)
GI50 [15]: > 100 µM (inactive)
GI50 [16]: > 100 µM (inactive)
GI50 [17]: > 100 µM (inactive)

Nc1ccc2c(SCC(=O)Nc3ccccc3-c3ccccc3NC(=O)CSc3c4ccccc4nc4cc(N)ccc34)c3ccccc3nc2c1
GI50 [1]: 25.3 µM (inactive)
GI50 [2]: 41 µM (inactive)
GI50 [3]: 31.1 µM
GI50 [4]: 29.6 µM (inactive)
GI50 [5]: 2.71 µM (inactive)
GI50 [6]: 24.4 µM (inactive)
GI50 [18]: 12.4 µM (inactive)
GI50 [7]: 29.2 µM (inactive)
GI50 [20]: 22.2 µM (inactive)
GI50 [8]: 8.47 µM (inactive)
GI50 [9]: 34.9 µM (inactive)
GI50 [10]: 31.5 µM (inactive)
GI50 [11]: 32.1 µM (inactive)
GI50 [12]: 14.6 µM (inactive)
GI50 [13]: 43.2 µM (inactive)
GI50 [14]: 40.9 µM (inactive)
GI50 [15]: 4.19 µM (inactive)
GI50 [19]: 3.05 µM (inactive)
GI50 [16]: 24.4 µM (inactive)
GI50 [17]: 20 µM (inactive)

CCOc1ccc(NCC2CC/C(=C\c3ccc(Cl)cc3)C2=O)cc1 (stereo not given)
GI50 [1]: 13 µM (inactive)
GI50 [2]: > 100 µM (inactive)
GI50 [3]: 7.73 µM
GI50 [4]: > 42.1 µM (inactive)
GI50 [5]: 6.81 µM (inactive)
GI50 [6]: 20.4 µM (inactive)
GI50 [7]: 89.3 µM (inactive)
GI50 [8]: 2.54 µM (inactive)
GI50 [9]: > 47.9 µM (inactive)
GI50 [10]: > 100 µM (inactive)
GI50 [11]: > 41.7 µM (inactive)
GI50 [12]: 23 µM (inactive)
GI50 [13]: > 100 µM (inactive)
GI50 [14]: 98.9 µM (inactive)
GI50 [15]: 12.1 µM (inactive)
GI50 [16]: > 38.9 µM (inactive)
GI50 [17]: > 42.5 µM (inactive)

Reference: ChEMBL document CHEMBL1201862, “PubChem BioAssay data set” (2004)
